These results are taken from US20240260575A1, “AGRICULTURAL AND HORTICULTURAL FUNGICIDAL COMPOSITION” (Nippon Soda Co., Ltd., priority 2021, published 2024).

For assay [1], the system named is cucumber powdery mildew pathogen (Sphaerotheca fuliginea). The assay can be described thus: Cucumber powdery mildew control test. Also noted: scale not given here. It counts as in vivo. As to conditions: for control value: sprayed onto cucumber seedlings. An excerpt: (Test Example) Cucumber Powdery Mildew Control Test 1) Preparation of Drug Solution for Test […] The other components (II) were each formulated into an aqueous solution or suspension having a predetermined concentration. 2) Test A mixed solution of a component (I) and a component (II) at a predetermined concentration was sprayed onto cucumber seedlings (variety: “Shimo-shirazu, creeping type”, cotyledon stage). After natural drying at room temperature, conidiospores of a cucumber powdery mildew pathogen (Sphaerotheca fuliginea) were inoculated by blushing off, and the seedlings were kept in a thermostatic room at 20° C. using a 12 hour light/dark cycle for 7 to 10 days. The states of lesion development on leaves were examined by comparing with that for the untreated case, and the control values were determined. The test was duplicately carried out. The results are shown in Tables 8 to 12 together with expected values calculated as follows. Expected values were calculated by using Colby's equation: […] Here, E denotes an expected value of a control value, M denotes a control value in using a component (I) alone, and N denotes a control value in using a component (II) alone. If the actually measured control value of a composition of a component (I) and a component (II) is higher than the expected value, E, the composition of a component (I) and a component (II) is said to have exerted synergistic effect.

For assay [2], the system named is gray mold pathogen (Botrytis cinerea). The assay can be described thus: Gray mold antimicrobial test (growth inhibition rate). It counts as cell-based. Also noted: growth inhibition rate, component (II) alone: concentration or dose not given beside the values. The protocol: (Test Example) Gray Mold Antimicrobial Test (Growth Inhibition Rate)
Conidiospores of a gray mold pathogen (Botrytis cinerea) were added to and dispersed in a yeast extract sucrose medium, and a component (I) and a component (II) dissolved in dimethyl sulfoxide at predetermined concentrations were further added and mixed thereto, and the resulting solution was dispensed onto a 96-well microplate and cultivated in the dark at 20° C. for 3 to 5 days. After the cultivation, the turbidity at a wavelength of 405 nm was measured by a microplate reader and compared with that in the untreated case to determine the growth inhibition rate (%) for the gray mold pathogen. The test was duplicately carried out. The results are shown in Tables 3 to 7 together with expected values calculated as follows.
Expected values were calculated by using Colby's equation: E=M+N−MN/100. Here, E denotes an expected value (%) of a growth inhibition rate, M denotes a growth inhibition rate (%) in using a component (I) alone, and N denotes a growth inhibition rate (%) in using a component (II) alone.
If the actually measured growth inhibition rate (%) of a composition of a component (I) and a component (II) is higher than the expected value, E, the composition of a component (I) and a component (II) is said to have exerted synergistic effect.

Setting [3] is: Table 8, ppm or dilution rate: Thiophanate-methyl 1.6, Triflumizole 25, Cyflufenamid 1.6, Iminoctadine acetate 0.25, Iminoctadine albesilate 1, Picarbutrazox 2000, Ipflufenoquin 1, Bacillus subtilis ×250, Pseudomonas rhodesiae ×2000, Sodium hydrogen carbonate 250, Potassium bicarbonate 250, Orange oil 4000, Linalool 4000, Thymol 100, Neem oil 2000, Prothioconazole 1.6, Mancozeb 63, Mineral oil 500.

The mark [4] stands for this setting: Table 9, ppm or dilution rate: Thiophanate-methyl 1.6, Triflumizole 25, Cyflufenamid 1.6, Iminoctadine acetate 0.25, Iminoctadine albesilate 1, Picarbutrazox 2000, Ipflufenoquin 1, Bacillus subtilis ×250, Pseudomonas rhodesiae ×2000, Sodium hydrogen carbonate 250, Potassium bicarbonate 250, Orange oil 1000, Linalool 4000, Thymol 100, Neem oil 2000, Prothioconazole 1.6, Mancozeb 63, Mineral oil 500.

Where [5] appears, read: Table 10, ppm or dilution rate: Thiophanate-methyl 1.6, Triflumizole 25, Cyflufenamid 1.6, Iminoctadine acetate 0.25, Iminoctadine albesilate 1, Picarbutrazox 2000, Ipflufenoquin 1, Bacillus subtilis ×1000, Pseudomonas rhodesiae ×2000, Sodium hydrogen carbonate 250, Potassium bicarbonate 250, Orange oil 1000, Linalool 4000, Thymol 100, Neem oil 2000, Prothioconazole 1.6, Mancozeb 63, Mineral oil 5.

[6] abbreviates: Table 11, ppm or dilution rate: Thiophanate-methyl 1.6, Triflumizole 25, Cyflufenamid 1.6, Iminoctadine acetate 1, Iminoctadine albesilate 1, Picarbutrazox 2000, Ipflufenoquin 1, Bacillus subtilis ×1000, Pseudomonas rhodesiae ×2000, Sodium hydrogen carbonate 250, Potassium bicarbonate 250, Orange oil 1000, Linalool 4000, Thymol 100, Neem oil 2000, Prothioconazole 1.6, Mancozeb 63, Mineral oil 500.

Where [7] appears, read: Table 12, ppm or dilution rate: Thiophanate-methyl 1.6, Triflumizole 25, Cyflufenamid 1.6, Iminoctadine acetate 0.25, Iminoctadine albesilate 1, Picarbutrazox 2000, Ipflufenoquin 1, Bacillus subtilis ×1000, Pseudomonas rhodesiae ×2000, Sodium hydrogen carbonate 1000, Potassium bicarbonate 250, Orange oil 1000, Linalool 4000, Thymol 400, Neem oil 2000, Prothioconazole 1.6, Mancozeb 63, Mineral oil.

Where [8] appears, read: Table 3, ppm: Ipflufenoquin 10, Cyflufenamid 10, Thiophamate-methyl 0.4, Iminoctadine acetate 0.08, Iminoctadine albesilate 0.08, Triflumizole 0.0032, Picarbutrazox 0.08, Prothioconazole 0.0032, Mefentrifluconazole 0.00064, Cymoxanil 10, Fludioxonil 0.016, Metyltetraprole 0.4, Florylpicoxamid 0.08, Fluxapyroxad 0.08, Fluopyram 0.4, Potassium phosphite 10, Fipronil 2, Chlorantraniliprole 0.016, Aba.

Where [9] appears, read: Table 4, ppm: Ipflufenoquin 10, Cyflufenamid 2, Thiophamate-methyl 0.4, Iminoctadine acetate 0.08, Iminoctadine albesilate 0.4, Picarbutrazox 10, Prothioconazole 0.0032, Mefentrifluconazole 0.0006, Cymoxanil 10, Fludioxonil 0.016, Metyltetraprole 10, Fluxapyroxad 0.016, Fluopyram 0.4, Potassium phosphite 10, Fipronil 2, Chlorantraniliprole 0.016, Abamectin 0.016, Sulfoxaflor 10, Tebufenozide 0.016.

Where [10] appears, read: Table 7, ppm: Ipflufenoquin 0.08, Cyflufenamid 0.08, Thiophamate-methyl 2, Iminoctadine acetate 0.0001, Iminoctadine albesilate 0.4, Triflumizole 0.4, Prothioconazole 0.0032, Mefentrifluconazole 0.08, Cymoxanil 0.08, Captan 0.08, Fludioxonil 0.08, Metyltetraprole 0.0032, Florylpicoxamid 0.0006, Fluxapyroxad 0.016, Fluopyram 0.0032, Potassium phosphite 0.016, Fipronil 2, Chlorantraniliprole 0.016.

Take `CCCCCCCCCCCCc1ccc(S(=O)(=O)O)cc1.CCCCCCCCCCCCc1ccc(S(=O)(=O)O)cc1.CCCCCCCCCCCCc1ccc(S(=O)(=O)O)cc1.NC(N)=NCCCCCCCCNCCCCCCCCN=C(N)N` [Iminoctadine albesilate]: the “control value, component (II) alone” value is 50 in assay [1] (setting [3]); 67 in assay [1] (setting [4]); 50 in assay [1] (setting [5]); 67 in assay [1] (setting [6]); 17 in assay [1] (setting [7]). The “growth inhibition rate, component (II) alone” value in assay [2] (setting [8]) came to 6%; in assay [2] (setting [9]), 81%; in assay [2] (Table 5, ppm: Ipflufenoquin 10, Cyflufenamid 10, Thiophamate-methyl 0.4, Iminoctadine albesilate 0.4, Picarbutrazox 0.0032, Mefentrifluconazole 0.0006, Cymoxanil 10, Captan 0.0032, Fludioxonil 0.016, Metyltetraprole 10, Florylpicoxamid 0.0001, Fluxapyroxad 0.016, Fluopyram 0.0032, Potassium phosphite 0.08, Fipronil 2, Chlorantraniliprole 0.016, Abamectin 0.4, Sulfoxaflor 0.4, Tebufenozide 10), 81%; in assay [2] (setting [10]), 81%.

Take `COc1ccc(F)cc1C(Cn1cc(/C(C)=N/OC(C)C)c(=O)n(C[C@H](C)NC(=O)C(C)C)c1=O)OCCC#N` (stereo partly drawn) [Compound 5]: the control value in assay [1] (Table 12, Examination 1, Compound 5 0.4 ppm alone or mixed with component (II)) turned out to be 83; in assay [1] (Table 12, Examination 2, Compound 5 0.4 ppm alone or mixed with component (II)) it was 60; in assay [1] (Table 12, Examination 3, Compound 5 0.4 ppm alone or mixed with component (II)) it was 56; in assay [1] (Table 12, Examination 4, Compound 5 0.4 ppm alone or mixed with component (II)), 50; in assay [1] (Table 12, Examination 5, Compound 5 0.4 ppm alone or mixed with component (II)) it was 67; in assay [1] (Table 12, Examination 6, Compound 5 0.4 ppm alone or mixed with component (II)), 50. Further, the control value in assay [1] (Table 12, Examination 7, Compound 5 0.4 ppm alone or mixed with component (II)) came out at 67. In addition, the growth inhibition rate in assay [2] (Table 7, Examination 1, Compound 5 (0.25 or 0.063 ppm, head span unclear) alone or mixed with component (II)) is 61%; in assay [2] (Table 7, Examination 2, Compound 5 (0.25 or 0.063 ppm, head span unclear) alone or mixed with component (II)), 43%; in assay [2] (Table 7, Examination 3, Compound 5 (0.25 or 0.063 ppm, head span unclear) alone or mixed with component (II)), 13%; in assay [2] (Table 7, Examination 4, Compound 5 (0.25 or 0.063 ppm, head span unclear) alone or mixed with component (II)), 3%; in assay [2] (Table 7, Examination 5, Compound 5 (0.25 or 0.063 ppm, head span unclear) alone or mixed with component (II)), 3%; in assay [2] (Table 7, Examination 6, Compound 5 (0.25 or 0.063 ppm, head span unclear) alone or mixed with component (II)) it was 2%.

As to `CC(=O)O.CC(=O)O.CC(=O)O.NC(N)=NCCCCCCCCNCCCCCCCCN=C(N)N` [Iminoctadine acetate], the “control value, component (II) alone” value in assay [1] (setting [3]) is listed as 0; in assay [1] (setting [4]), 50; in assay [1] (setting [5]), 0; in assay [1] (setting [6]), 50; in assay [1] (setting [7]) it was 17. Besides, the “growth inhibition rate, component (II) alone” value in assay [2] (setting [8]) was 25%; in assay [2] (setting [9]), 56%; in assay [2] (setting [10]), 0%.

With `COc1ccccc1C(O)Cn1cc(/C(C)=N/OC(C)C)c(=O)n(C[C@H](C)NC(=O)C(C)C)c1=O` (stereo partly drawn) [Compound 4], the control value stood at 78 in assay [1] (Table 11, Examination 1, Compound 4 0.4 ppm alone or mixed with component (II)); 64 in assay [1] (Table 11, Examination 2, Compound 4 0.4 ppm alone or mixed with component (II)); 63 in assay [1] (Table 11, Examination 3, Compound 4 0.4 ppm alone or mixed with component (II)); 59 in assay [1] (Table 11, Examination 4, Compound 4 0.4 ppm alone or mixed with component (II)); 59 in assay [1] (Table 11, Examination 5, Compound 4 0.4 ppm alone or mixed with component (II)); 67 in assay [1] (Table 11, Examination 6, Compound 4 0.4 ppm alone or mixed with component (II)). The growth inhibition rate in assay [2] (Table 6, Examination 1, Compound 4 (0.25 or 0.063 ppm) alone or mixed with component (II)) was 56%; in assay [2] (Table 6, Examination 2, Compound 4 (0.25 or 0.063 ppm) alone or mixed with component (II)) it was 31%; in assay [2] (Table 6, Examination 3, Compound 4 (0.25 or 0.063 ppm) alone or mixed with component (II)), 6%; in assay [2] (Table 6, Examination 4, Compound 4 (0.25 or 0.063 ppm) alone or mixed with component (II)), 4%; in assay [2] (Table 6, Examination 5, Compound 4 (0.25 or 0.063 ppm) alone or mixed with component (II)) it was 4%; in assay [2] (Table 6, Examination 6, Compound 4 (0.25 or 0.063 ppm) alone or mixed with component (II)), 3%.
